Test results published in ChEMBL document CHEMBL4007505 (J Med Chem, 2017).
The source made the active and inactive calls. The rule behind the calls is not given here.

Assays:
[1] = target: T1, Alpha-2C adrenergic receptor (Homo sapiens, UniProt P18825); assay: Displacement of [3H]Rauwolscine from human adrenergic alpha2C receptor
T1 sequence (P18825 whole entry): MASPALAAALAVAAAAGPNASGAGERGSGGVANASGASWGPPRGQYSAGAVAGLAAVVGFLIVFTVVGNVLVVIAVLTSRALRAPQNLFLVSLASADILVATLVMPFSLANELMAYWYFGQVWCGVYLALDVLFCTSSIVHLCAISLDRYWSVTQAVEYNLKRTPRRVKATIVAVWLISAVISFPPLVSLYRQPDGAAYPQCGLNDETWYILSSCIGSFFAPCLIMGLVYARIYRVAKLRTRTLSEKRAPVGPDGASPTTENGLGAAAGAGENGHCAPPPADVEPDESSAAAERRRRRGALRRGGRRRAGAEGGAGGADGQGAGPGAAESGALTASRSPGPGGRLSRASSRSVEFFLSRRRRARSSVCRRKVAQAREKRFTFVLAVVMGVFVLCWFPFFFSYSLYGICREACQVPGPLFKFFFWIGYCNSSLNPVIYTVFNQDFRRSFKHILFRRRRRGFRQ

[2] = target: Sodium-dependent dopamine transporter (Homo sapiens, UniProt Q01959); assay: Inhibition of [3H]WIN35,428 binding to recombinant human DAT expressed in HEK293 cell membranes at 10 uM pre-incubated for 10 mins before radioligand addition and measured 90 mins after radioligand addition by micro beta scintillation counting analysis relative to control
[3] = target: T2, Sodium-dependent noradrenaline transporter (Homo sapiens, UniProt P23975); assay: Inhibition of recombinant human NET expressed in HEK293 […] assessed as reduction in [3H]-norepinephrine uptake incubated for 22 mins by micro beta scintillation counting analysis
[4] = target: T2, Sodium-dependent noradrenaline transporter; assay: Enhancing of [3H]mazindol binding to recombinant human NET expressed in HEK293 cell membranes preincubated for 10 mins followed by radioligand addition measured after 90 mins by micro beta scintillation counting analysis
[5] = target: T3, Alpha-1B adrenergic receptor (Homo sapiens, UniProt P35368); assay: Displacement of [3H]Prazosin from human adrenergic alpha1B receptor
T3 sequence (P35368 whole entry): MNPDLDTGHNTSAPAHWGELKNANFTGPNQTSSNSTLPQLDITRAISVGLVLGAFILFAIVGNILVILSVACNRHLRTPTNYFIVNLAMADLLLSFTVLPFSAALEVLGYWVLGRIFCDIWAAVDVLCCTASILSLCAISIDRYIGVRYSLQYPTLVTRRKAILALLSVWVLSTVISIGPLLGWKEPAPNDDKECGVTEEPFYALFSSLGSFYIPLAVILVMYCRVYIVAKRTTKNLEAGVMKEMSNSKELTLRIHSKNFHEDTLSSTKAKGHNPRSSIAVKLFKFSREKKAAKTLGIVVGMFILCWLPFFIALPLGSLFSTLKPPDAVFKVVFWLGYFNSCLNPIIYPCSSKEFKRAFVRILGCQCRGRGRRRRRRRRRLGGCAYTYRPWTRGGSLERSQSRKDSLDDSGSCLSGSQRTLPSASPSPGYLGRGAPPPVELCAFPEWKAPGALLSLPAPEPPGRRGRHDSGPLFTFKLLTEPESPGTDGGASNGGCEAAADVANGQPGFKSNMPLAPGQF

[6] = target: Sodium-dependent serotonin transporter (Homo sapiens, UniProt P31645); assay: Enhancing of [125I]RTI-55 binding to recombinant human SERT expressed in HEK293 cell membranes preincubated for 10 mins followed by radioligand addition measured after 90 mins by micro beta scintillation counting analysis
[7] = target: T4, Adenosine receptor A3 (Homo sapiens, UniProt P0DMS8); assay: Displacement of [125I]N6-(4-amino-3-iodobenzyl)adenosine-5'-N-methyluronamide from human A3AR expressed in HEK293T cells pre-incubated for 10 mins before radioligand addition and measured 90 mins after radioligand addition by micro beta scintillation counting analysis relative to control; format: cell-based, HEK-293T
T4 sequence (P0DMS8 whole entry): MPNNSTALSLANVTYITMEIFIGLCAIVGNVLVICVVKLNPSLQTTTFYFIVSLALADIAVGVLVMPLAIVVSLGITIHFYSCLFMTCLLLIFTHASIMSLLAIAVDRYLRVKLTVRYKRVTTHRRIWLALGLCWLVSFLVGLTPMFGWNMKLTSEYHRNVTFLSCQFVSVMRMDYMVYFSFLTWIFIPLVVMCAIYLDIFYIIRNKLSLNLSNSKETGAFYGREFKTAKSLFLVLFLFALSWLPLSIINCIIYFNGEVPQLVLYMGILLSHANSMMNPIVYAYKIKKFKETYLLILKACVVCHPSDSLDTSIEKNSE

T2 sequence (P23975 whole entry): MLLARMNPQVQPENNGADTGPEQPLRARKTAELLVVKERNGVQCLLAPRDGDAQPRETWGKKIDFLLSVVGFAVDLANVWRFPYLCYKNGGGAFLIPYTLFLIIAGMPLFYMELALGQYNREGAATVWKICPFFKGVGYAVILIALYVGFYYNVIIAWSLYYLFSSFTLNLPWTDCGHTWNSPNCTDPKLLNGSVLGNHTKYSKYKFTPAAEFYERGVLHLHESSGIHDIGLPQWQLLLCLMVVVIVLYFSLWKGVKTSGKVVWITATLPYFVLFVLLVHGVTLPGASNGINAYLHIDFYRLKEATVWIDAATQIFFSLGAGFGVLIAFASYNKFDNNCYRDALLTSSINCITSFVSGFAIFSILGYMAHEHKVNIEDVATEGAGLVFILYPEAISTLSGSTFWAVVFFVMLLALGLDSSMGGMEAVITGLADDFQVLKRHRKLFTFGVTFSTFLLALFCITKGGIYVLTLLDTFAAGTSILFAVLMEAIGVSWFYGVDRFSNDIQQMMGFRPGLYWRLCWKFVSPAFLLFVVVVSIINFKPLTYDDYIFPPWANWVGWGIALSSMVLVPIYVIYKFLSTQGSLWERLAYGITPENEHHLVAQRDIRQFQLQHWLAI
Chain of Sodium-dependent dopamine transporter (Q01959 whole entry): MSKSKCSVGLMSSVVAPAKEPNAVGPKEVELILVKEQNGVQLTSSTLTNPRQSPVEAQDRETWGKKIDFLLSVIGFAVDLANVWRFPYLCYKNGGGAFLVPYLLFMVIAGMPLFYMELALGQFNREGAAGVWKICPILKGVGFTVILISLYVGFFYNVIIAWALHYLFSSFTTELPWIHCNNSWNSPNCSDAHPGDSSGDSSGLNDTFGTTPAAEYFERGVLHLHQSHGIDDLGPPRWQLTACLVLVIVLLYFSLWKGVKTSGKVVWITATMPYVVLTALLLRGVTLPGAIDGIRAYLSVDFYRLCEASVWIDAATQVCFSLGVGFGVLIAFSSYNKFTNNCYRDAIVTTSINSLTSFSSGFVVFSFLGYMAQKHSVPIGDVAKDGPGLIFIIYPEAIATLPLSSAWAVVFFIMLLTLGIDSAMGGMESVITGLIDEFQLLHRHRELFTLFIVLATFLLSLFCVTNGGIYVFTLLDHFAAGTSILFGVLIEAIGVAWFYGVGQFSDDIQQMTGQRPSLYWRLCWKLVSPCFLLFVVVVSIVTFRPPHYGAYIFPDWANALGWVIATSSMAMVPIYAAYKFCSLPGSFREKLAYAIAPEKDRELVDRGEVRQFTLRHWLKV

Which Ki [1] does the source give for `CNc1nc(C#Cc2ccc(Cl)s2)nc2c1ncn2[C@@H]1O[C@H](C(=O)OC)[C@@H](O)[C@H]1O` here?
Its Ki is > 10000 nM.

And the inhibition [2]?
Its inhibition is “inactive”.

And the IC50 [3]?
Its IC50 is 2690 nM.

What about the Activity [4] of the same molecule?
Its Activity is “inactive”.

And the Ki [5]?
The Ki was > 10000 nM.

And the Activity [6]?
The Activity was “inactive”.

And the EC50 ([6]; read-out: EC50)?
The EC50 was > 10000 nM.

And the Ki [7]?
Its Ki is 11.5 nM.
